Test results published in patent US12233060B2, “Inhibitors of Ataxia-Telangiectasia Mutated and Rad3-related protein kinase (ATR) for use in methods of treating cancer” (THE INSTITUTE OF CANCER RESEARCH: ROYAL CANCER HOSPITAL, priority 2016, dated 2025).

Key:
Type in all cases: cell-based, human
HCT116 cells = assay: VX-970 dose response after siRNA silencing of BAF components; conditions: HCT116, 5 days exposure; p<0.0001 ANOVA
Protocol: FIG. 6. BAF complex deficiency causes sensitivity to ATR inhibition. A. Schematic of BAF complex composition in human cells. B. VX-970 dose response curves from HCT116 cells transfected with siRNA targeting ARID1B or SMARCA4. 48 hours after transfection cells were exposed to VX-970 for 5 days. Error bars represent SD from triplicate experiments. p<0.0001, ANOVA for siARID1B and siSMARCA4 vs. siCON. C. Western blots illustrating ARID1B and SMARCA4 silencing in experiment (B). D. VX-970 dose response curves from four OCCC cell lines, 3 SMARCA4 wildtype (blue; RMG1, KK and ES2) and 1 SMARCA4 mutant (red; TOV112D). E. Bar chart illustrating surviving fraction after five days VX-970 exposure in HCC1143 and He1a cells transfected with siRNA targeting either SMARCA4 or ARID1A *p<0.05 by Student's t-test compared to siCon. F. Western blot illustrating level of chromatin bound TOP2A in HCT116 cells transfected siRNA targeting ARID1A, ARID1B or SMARCA4. Cells were analysed 48 hours after transfection. G. A model for the proposed mechanism driving the sensitivity of ARID1A-deficient cells to ATRi. […]
Short-term survival assays were performed in 384-well plates. […] Drug was added 24 h after seeding and cells were continuously exposed to the drug for five days, after which cell viability was estimated using CellTitre-Glo luminescence (Promega). […] Colonies were counted manually. […]

[1] = tested on: HCT116 ARID1A+/+ and ARID1A−/− cells; assay: γH2AX western blot; conditions: VX-970 0.5 uM; ARID1A−/− vs ARID1A+/+
Protocol: FIG. 5. ATRi effect on cell cycle progression, chromosomal instability, DNA damage and apoptosis. A. Barchart illustrating G2/M fraction in HCT116 ARID1A^+/+ and ARID1A^−/− cells synchronized in G1/early S phase by double thymidine block and released into fresh media containing DMSO or VX-970 (500 nM). The percentage of cells in G2/M was measured by FACS following PI staining. […] Cells were stained with DAPI. A minimum of 50 anaphases were scored in 3 biological replicate experiments. *p=0.023, Student's t-test. C. Bar chart illustrating frequency of anaphase bridges in TOV21G cells exposed to VX-970 (0.5 uM) or DMSO for 8 hours prior to fixation. Experiment performed as for (B). p=0.006 Student's t-test. D. Mitotic spread images from HCT116 ARID1A^+/+ and ARID1A^−/− cells following exposure to either DMSO or VX-970 (1 uM). Scale bar represents 20 um. E. Bar chart illustrating extent of chromosomal abnormalities in HCT116 ARID1A^+/+ and ARID1A^−/− cells exposed to VX-970 (1 uM). *p<0.05, Student's t-test. F. Western blot illustrating γH2AX in HCT116 ARID1A^+/+ and ARID1A^−/− cells exposed to VX-970 (0.5 uM) for the indicated time prior to cell lyses. G. Bar chart illustrating apoptotic fraction in cells exposed to increasing concentrations of VX-970 for 24 hours. Experiment as per FIG. 3I. H. Western blot illustrating PARP cleavage in HCT116 ARID1A^+/+ and ARID1A^−/− cells exposed to VX-970. […]

SYO1 cells = assay: FACS cell cycle and Caspase Glo apoptosis in SYO1 cells
Protocol: FIG. 10. ATR inhibitors elicit replication fork stress in SS tumour cells. […] Error bars represent SEM from triplicate experiments. p values were derived from Student's t tests. B. Western blot illustrating PARP1 cleavage in SYO1 cells exposed to VX970 for 24 hours. C. Western blot illustrating H2AX phosphorylation (γH2AX) in SYO1 cells exposed to VX970 (0.1 μM). D. Confocal microspcopy images illustrating H2AX phosphorylation in SYO1 cells exposed to VX970 (0.1 μM, 24 hours). E. Bar chart depicting data from (D). Error bars represent SEM from 100 images. p values were derived from Student's t tests. F. Replication fork speeds in SYO1 cells exposed to 0.1 μM VX970 for two hours. p value was derived from a Student's t test. G. Replication fork speeds in HCT116 cells exposed to 0.1 μM VX970 for two hours in the presence and absence of ectopic expression of a SS18-SSX1 fusion protein. p values were derived from Student's t tests. Expression of SS18-SSX1 or exposure to VX970 reduced fork speed. Combined SS18-SSX1 expression and VX970 exposure enhanced the reduction in fork speed. H and I. FACS plots from SYO1 cells exposed to VX970.

## CNCc1ccc(-c2cc(-c3nc(-c4ccc(S(=O)(=O)C(C)C)cc4)cnc3N)on2)cc1 [VX-970, 5-[4-(Isopropylsulfonyl)phenyl]-3-(3-{4-[(methylamino)methyl]phenyl}-1,2-oxazol-5-yl)-2-pyrazinamine]
HCT116 cells
  VX-970 sensitivity after silencing of SMARCA4, ARID1B or SMARCB1: enhanced sensitivity
[1]
  γH2AX induction: more pronounced
SYO1 cells; 0.1 μM
  sub G1 fraction: increase in the sub G1 fraction
SYO1 cells; SS tumour cells exposed to VX970 (0.1 μM)
  cell cycle, S phase: arrest in S phase
SYO1 cells; SYO1 cells
  apoptosis (Caspase Glo): apoptosis, estimated by Caspase Glo, caused by exposure
